# Patent US20240424011A1, “COMBINATION THERAPY OF HYPOXIA-RESPONSIVE PRODRUG OF AN ANTICANCER DRUG AND RADIOTHERAPY, AND NOVEL HYPOXIA-RESPONSIVE PRODRUG” (UNIVERSITY OF TSUKUBA, priority 2021, published 2024)
# Key:
# [1] = tested on: Human pancreatic cancer cells (MIA Paca-2); assay: In vivo study 1: MIA Paca-2 implant, gemcitabine or its HAP 120 mg/kg with radiotherapy; parameters: species or system Balb/c nude mice; details: i.p. 120 mg/kg twice/week plus 2 Gy; for tumor growth inhibitory effect: vs radiation monotherapy, FIG. 12
# Method: Human pancreatic cancer cells (MIA Paca-2) were subcutaneously implanted into Balb/c nude mice (6 or 7 mice per group), respectively, and gemcitabine or gemcitabine HAP (prepared according to the method described in Examples of JP 5676020 B2) was intraperitoneally administered (120 mg/kg, twice/week) to examine the synergistic effect of the combination therapy with radiotherapy (2 Gy, on the day after drug administration, twice/week).
# [2] = tested on: Human pancreatic cancer cells (MIA Paca-2); assay: In vivo study 2: MIA Paca-2 implant, gemcitabine or its HAP 10 mg/kg with radiotherapy; parameters: species or system Balb/c nude mice; details: i.p. 10 mg/kg twice/week plus 1 Gy, vs radiation monotherapy and gemcitabine plus radiation
# Method: Human pancreatic cancer cells (MIA Paca-2) were subcutaneously implanted to Balb/c nude mice (6 mice per group), and gemcitabine or gemcitabine HAP was intraperitoneally administered (10 mg/kg, twice/week) to examine the synergistic effect of the combination therapy with radiotherapy (1 Gy, on the day after drug administration, twice/week).
# [3] = tested on: Human cancer cells (MIA Paca-2); assay: In vivo study 2 (part 2): MIA Paca-2 implant, comparison with 2-nitroimidazole, with irradiation; parameters: species or system Balb/c nude mice; details: i.p. 10 mg/kg twice/week plus 1 Gy; vs radiation alone, 2-nitroimidazole, and gemcitabine plus 2-nitroimidazole, FIG. 14
# Method: Human cancer cells (MIA Paca-2) were subcutaneously implanted into Balb/c nude mice (7 mice per group), respectively, and 2-nitroimidazole (10 mg/kg, twice/week), 2-nitroimidazole and gemcitabine (10 mg/kg respectively, twice/week), and gemcitabine HAP (10 mg/kg, twice/week) were intraperitoneally administered to examine the synergistic effect of the combination therapy with irradiation (1 Gy, on the day after drug administration, twice/week).
# [4] = tested on: Human cholangiocarcinoma cells (HuCCT1); assay: In vivo study 3: HuCCT1 implant, gemcitabine or its HAP 30 mg/kg with radiotherapy; parameters: species or system Balb/c nude mice; details: i.p. 30 mg/kg twice/week plus 2 Gy; for tumor growth inhibitory effect: vs radiation monotherapy, FIG. 15
# Method: Human cholangiocarcinoma cells (HuCCT1) were subcutaneously implanted into Balb/c nude mice (5 mice per group), respectively, and gemcitabine or gemcitabine HAP was intraperitoneally administered (30 mg/kg, twice/week), respectively to examine the synergistic effect of the combination therapy with radiotherapy (2 Gy, on the day after drug administration, twice/week).
# [5] = tested on: malignant tumor; assay: therapy combined with radiotherapy (in vivo), summary in the disclosure; parameters: species or system experimental animals
# Source text: Nevertheless, we investigated if there exists benefit or not in the therapy combined with radiotherapy using the PropHAP of gemcitabine. […] Even if the dose of the drug was increased, the effect stayed the same. […] Each PropHAP differs from gemcitabine in its chemical structure of the anticancer drug and the mechanism of action on tumors.
# [6] = tested on: Human breast cancer cells (MDA-MB-231); assay: cell viability of MDA-MB-231 at normal and low oxygen concentration, 2 days; assay type: cell-based; details: MDA-MB-231, normal vs low oxygen concentration (0.2%), FIG. 1
# [7] = tested on: PARP; assay: detection of poly ADP ribosylated (PARylated) proteins by Western blotting; assay type: cell-based, Human; details: hypoxic environment, FIG. 2
# Source text: To determine whether the targeted PARP activity was inhibited under a hypoxic environment, proteins were recovered from the cells and poly ADP ribosylated (PARylated) proteins were detected by Western blotting.
# [8] = tested on: MDA-MB-231 cells; assay: MDA-MB-231 subcutaneous implant in mice, drug combined with radiotherapy; assay type: in vivo, Balb/c nude mice; details: oral 50/100 mg/kg plus 0.5 Gy; for tumor growth inhibitory effect: compared with radiation monotherapy, FIG. 3
# Method: Balb/c nude mice (6 or 7 mice per group) were each subcutaneously implanted with MDA-MB-231 cells, and administered with niraparib or niraparib HAP to analyze the synergistic effect with radiotherapy.
# Irradiation: 1 hour of drug administration followed by irradiation at 0.5 Gy
# [9] = tested on: Human malignant melanoma (A375) cells; assay: cell viability of A375 at normal and low oxygen concentration, 2 days; assay type: cell-based; details: A375, normal vs lower (0.2%) oxygen, FIG. 5, 6, 8
# [10] = tested on: Human breast cancer cells (MDA-MB-231); assay: cell viability of MDA-MB-231 at normal and low oxygen concentration, 4 days; assay type: cell-based; details: MDA-MB-231, normal vs lower (0.2%) oxygen, FIG. 7
# [11] = tested on: Human breast cancer cells (MCF-7); assay: cell viability of MCF-7 at normal and low oxygen concentration, 2 days; assay type: cell-based; details: MCF-7, normal vs lower (0.2%) oxygen, FIG. 9, 11
# Source text: The results are illustrated in FIG. 11.
# [12] = tested on: Human pancreatic cancer cells (MIA Paca-2); assay: MIA Paca-2 subcutaneous implant in mice, palbociclib or its HAP with radiotherapy; assay type: in vivo, Balb/c nude mice; details: oral 100 mg/kg twice/week plus 2 Gy; vs radiation alone and vs palbociclib plus radiation, FIG. 10
# Method: Human pancreatic cancer cells (MIA Paca-2) were subcutaneously implanted into Balb/c nude mice (6 mice per group), and palbociclib or palbociclib HAP was orally administered (100 mg/kg, twice/week) to examine the synergistic effect with radiotherapy (2 Gy on the day after drug administration, twice/week).
# [13] = tested on: human breast cancer cells (MCF7); assay: MCF7 subcutaneous implant in mice, ribociclib or its HAP with radiotherapy; assay type: in vivo, Balb/c nude mice; details: oral 75 mg/kg twice/week plus 1 Gy; vs radiation alone or ribociclib plus radiation, FIG. 11
# Method: A 17β-estradiol sustained-release pellet (manufactured by Innovative Research of America) and human breast cancer cells (MCF7) were subcutaneously implanted to Balb/c nude mice (6 mice per group), and ribociclib or ribociclib HAP was orally administered (75 mg/kg, twice/week) to examine the synergistic effect with radiotherapy (1 Gy, on the day after drug administration, twice/week). The results are illustrated in a lower panel of FIG. 11.
# [14] = tested on: human breast cancer cells (MCF7); assay: MCF7 subcutaneous implant in mice, doxorubicin or its HAP with radiotherapy; assay type: in vivo, Balb/c nude mice; details: i.p. 4 or 16 mg/kg plus 0.5 Gy
# Method: Balb/c nude mice (6 mice or more per group) were subcutaneously implanted with […] sustained-release pellets (produced by Innovative Research of America) and human breast cancer cells (MCF7), and intraperitoneally administered with doxorubicin (4 mg/kg. Day 0 and 2) or doxorubicin HAP 4 mg/kg, or 16 mg/kg, Day 0, 2, 7 and 9) to examine the synergistic effect with radiotherapy (0.5 Gy, Day 1, 3, 8 and 10). The results are shown in a lower panel of FIG. 16.
# [15] = tested on: hypoxic cells; details: compared to typical radiotherapy alone; cited from earlier work
# [16] = vs gemcitabine-administered group
# [17] = with radiotherapy, radiation dose at which the parent compound causes side effects such as weight loss
# [18] = compared with niraparib-administered group
structure (smiles),measurement,setting,value
O=C(CCn1ccnc1[N+](=O)[O-])Nc1ccn([C@@H]2O[C@H](CO)C(O)C2(F)F)c(=O)n1 (stereo in doubt) [gemcitabine HAP],body weight,[1]; [16],no decrease in body weight
same,survival rate,[1]; [16],improved survival rate
same,tumor growth inhibitory effect,[1],tumor growth inhibitory effect was enhanced
same,tumor growth inhibitory effect,[2]; FIG. 13,effect was higher than that of gemcitabine
same,tumor growth inhibitory effect,"[2]; FIG. 13, listed as gemcitabine-HAP",tumor growth inhibitory effect was enhanced
same,tumor growth inhibitory effect,[3],tumor growth inhibitory effect was enhanced
same,body weight,[4]; [16],did not show a decrease in body weight
same,tumor growth inhibitory effect,[4],tumor growth inhibitory effect was enhanced
same,anticancer effects,"[5]; radiation and drug dose at which the parent shows no side effect, vs radiation alone, parent alone, parent plus radiotherapy",significantly superior anticancer effects
same,therapeutic effect,[5]; [17],almost equivalent to that of the parent compound
same,weight loss,[5]; [17],not resulting in a significant weight loss
NC(=O)c1cccc2cn(-c3ccc(C4CCCN(C(=O)CCn5ccnc5[N+](=O)[O-])C4)cc3)nc12 (centres unmarked) [Compound 3],cytotoxicity (cell viability),[6],cytotoxicity is recovered at the low oxygen concentration
same,PARP activity (PARylated proteins),[7],PARP activity is specifically inhibited under the low oxygen environment
same,body weight,[8]; [18],no decrease in body weight
same,survival rate,[8]; [18],improved survival rate
same,tumor growth inhibitory effect,[8],tumor growth inhibitory effect is enhanced
CC(C)(C)c1nc(-c2cccc(NS(=O)(=O)c3c(F)cccc3F)c2F)c(-c2ccnc(NC(=O)CCn3ccnc3[N+](=O)[O-])n2)s1 [Compound 9],cytotoxicity (cell viability),[9],cytotoxicity is recovered at the low oxygen concentration
CCCS(=O)(=O)Nc1ccc(F)c(C(=O)c2cn(C(=O)CCn3ccnc3[N+](=O)[O-])c3ncc(-c4ccc(Cl)cc4)cc23)c1F [Compound 11],cytotoxicity (cell viability),[9],cytotoxicity is recovered at the low oxygen concentration
O=C(CCn1ccnc1[N+](=O)[O-])Nc1ccccc1NC(=O)c1ccc(CNC(=O)OCc2cccnc2)cc1 [Compound 13],cytotoxicity (cell viability),[10],cytotoxicity is recovered at the low oxygen concentration
O=C(c1ccc(F)c(F)c1Nc1ccc(I)cc1F)N1CC(O)([C@@H]2CCCCN2C(=O)CCn2ccnc2[N+](=O)[O-])C1 [Compound 15],cytotoxicity (cell viability),[9],cytotoxicity is recovered at the low oxygen concentration
CC(=O)c1c(C)c2cnc(Nc3ccc(N4CCN(C(=O)CCn5ccnc5[N+](=O)[O-])CC4)cn3)nc2n(C2CCCC2)c1=O [Compound 17],cytotoxicity (cell viability),[11],cytotoxicity is recovered at the low oxygen concentration
same,tumor growth inhibitory effect,[12],tumor growth inhibitory effect was enhanced when radiation was used in combination
CN(C)C(=O)c1cc2cnc(Nc3ccc(N4CCN(C(=O)CCn5ccnc5[N+](=O)[O-])CC4)cn3)nc2n1C1CCCC1 [Compound 19],cytotoxicity (cell viability),[11],cytotoxicity is recovered at the low oxygen concentration
same,tumor growth inhibitory effect,[13],tumor growth inhibitory effect was enhanced when radiation was used in combination
COc1cccc2c1C(=O)c1c(O)c3c(c(O)c1C2=O)CC(O)(C(=O)CO)CC3OC1CC(NC(=O)CCn2ccnc2[N+](=O)[O-])C(O)C(C)O1 (centres unmarked) [doxorubicin HAP],weight loss,[14]; vs doxorubicin-administered group,did not show the weight loss
same,tumor growth inhibitory effect,"[14]; vs radiotherapy alone and doxorubicin plus radiation, FIG. 16",tumor growth inhibitory effect was enhanced when radiation was used in combination
O=C(Cn1ccnc1[N+](=O)[O-])NCCO [etanidazole],survival rate,[15],no significant improvement statistically in survival rate
"Nc1ccn([C@@H]2O[C@H](CO)[C@@H](O)C2(F)F)c(=O)n1 [gemcitabine, reference compound]",tumor growth inhibitory effect,[1],tumor growth inhibitory effect was enhanced
same,tumor growth inhibitory effect,[4],tumor growth inhibitory effect was enhanced
O=[N+]([O-])c1cncn1CCN1CCOCC1 [nimorazole],survival rate,[15],no significant improvement statistically in survival rate
"NC(=O)c1cccc2cn(-c3ccc([C@@H]4CCCNC4)cc3)nc12 [niraparib, reference compound]",tumor growth inhibitory effect,[8],tumor growth inhibitory effect is enhanced
O=[N+]([O-])c1nccn1CC(O)CN1CCCCC1 (centres unmarked) [pimonidazole],survival rate,[15],no significant improvement statistically in survival rate
